Experimental data: patent publication US6365621B1, “Remedies or preventives for intractable epilepsy” (Pharmaceutical Co., Ltd., priority 1998, dated 2002)
Where “and” joins values, the source holds several entries; their conditions need not be identical. Equal values may be shown once. Read-outs that look alike come from different tables or passages of the source.

Legend:
Assay type in all cases: in vivo, rat
[1] = system: amygdala kindling development in rats; test: Development/establishment of amygdala kindling under daily dosing
Method: The present inventors have studied the effects of nefiracetam on an development process of the amygdaloid kindled seizures and on establishment of kindling through a method described below, and have determined the efficacy of nefiracetam. The evolution process of kindling is tested by use of rats, in which electrodes are placed in the amygdala and kindling stimulation (50 Hz sine wave, duration of 1 second, once per day) is applied at specific intervals for restoration. On the first day, an afterdischarge-provocation threshold is determined without administration of a pharmaceutical. From the second day, kindling stimulation having intensity of the afterdischarge-provocative threshold is applied to rats administered with a specimen at a variety of administration doses, to thereby investigate an effect of the specimen on the evolution process of kindling.
In this test, the following parameters were evaluated: seizure stage in the process of development of amygdala kindling and afterdischarge duration at the stimulated amygdala.
[Method] Male Wistar rats (5 to 6 weeks old, weight: 200-250 g, Tokyo Jikken Dobutsu) were used. For each rat, in a manner similar to that in Example 1, there were performed anesthetization, setting of an electrode on the amygdala, and fixation of the electrode at the cranial bone. After a recovery period of at least two weeks, kindling stimulation was initiated.
Kindling stimulation was performed for one second per day with a sine wave of 50 Hz. On the first day, the afterdischarge threshold was determined, and from the second day, kindling stimulation was performed at the intensity of the threshold. On the first day, nefiracetam was not administered, in order to determine the threshold. For twenty days from the second day, a dose of nefiracetam (45, 90, or 180 mg/kg) was administered orally, and then kindling stimulation was performed 90 minutes after administration. After nefiracetam was administered for twenty days, kindling stimulation was performed without administration for an additional seven days.

[2] = system: kainate-induced amygdala seizures; as to Spikes from the amygdala after 24 h: key: (+): effective; (−): ineffective; as to Spikes from the amygdala after 48 h: key: (+): effective; (−): ineffective; as to Spikes from the amygdala after 72 h: key: (+): effective; (−): ineffective; as to Spikes from the amygdala just after intravenous injection: key: (+): effective; (−): ineffective
Method: [Method for measuring an electrophysiological effect] The following operation was performed by use of 19 Wistar male rats (Japan SLC Co.) each having a weight of 250-350 g. Each rat was anesthetized by pentobarbital and fixed in a stereotaxic apparatus. […] Subsequently, a bipolar depth electrode having a diameter of 0.2 mm were inserted into bilateral amygdala (A, +5.0; L, +−5.0; D, −3.0) and hippocampus (A, +3.0; L, +−3.2; D, +1.5). Screw electrodes were set at the left sensorimotor area (A, +1.0 (from bregam); L, +−2.5; D, 0.5 (from dura)), frontal sinus, and occipital median. The electrodes were connected to sockets, and the cannula, the electrodes, and the sockets were fixed on the cranium by use of dental cement. Seven days after operation, 1 μL of a solution of kainic acid dissolved in phosphoric acid buffer (1 mg/ml) was injected through the cannula (rate: […]) (n=12), so as to induce limbic system seizures. The electrodes were connected to an electroencephalograph, and the behavior of the rat in a cage was observed. An electroencephalogram was recorded by use of the electrode at the frontal sinus serving as an indifferent electrode and the electrode at the occipital median serving as ground. The behavior and electroencephalogram were simultaneously recorded by use of a video electroencephalogram recorder based on an electroencephalograph (SYNAFIT 1000; NEC San-ei Instruments, LTD.).
One to two hours after the injection of kainic acid, when a limbic system seizure was in status epilepticus, nefiracetam dissolved in saline (10 mg/mL) was slowly injected into a caudal vein in an amount selected from 10, 50, 100, and 200 mg/kg (n=12). The same amount of saline was injected into a vein of rats of the control group (n=7). Subsequently, behavior and electroencephalograms of the rat were continuously recorded for at least eight hours, followed by two-hour recording after 24 hours, 48 hours, and 72 hours. Changes in clinical seizure and electroencephalogram observations just after the injection of the nefiracetam solution or saline, and occurrence of seizures and electroencephalogram observations after 24, 48, and 72 hours were measured, and the results were evaluated on the basis of the comparison.

[3] = system: kainate-induced cortical focal seizures; test: Local cerebral glucose metabolism during kainate-induced cortical focal seizures; design: key to Change in local cerebral glucose metabolism rate: →: no change; →↓: decreased in a low degree; ↓: decreased in a moderate degree; ↓↓: decreased in a high degree; details: for Change in local cerebral glucose metabolism rate: 100 mg/kg i.v.
Method: [Method] A cannula was set in the left sensorimotor area of rats, and kinic acid was injected so as to induce seizures through the same manner as described in the experiment of I-1. Subsequently, a nefiracetam solution (100 mg/kg) was intravenously injected into each rat. After 60 minutes, [^14C] deoxyglucose was intravenously injected, and autoradiograms were produced through the same procedure as described in the experiment of I-2. A glucose utilization rate of each intracerabral structure was compared with that of the control group.

[4] = Test 1, 90 mg/kg p.o. daily for twenty days
[5] = Test 2, 45 mg/kg p.o. daily for twenty days
[6] = Test 2, 180 mg/kg p.o. daily for twenty days
[7] = 10 mg/kg i.v., EEG, individual rat
[8] = 50 mg/kg i.v., EEG, individual rat
[9] = 100 mg/kg i.v., EEG, individual rats
[10] = 200 mg/kg i.v., EEG, individual rats
[11] = 200 mg/kg i.v., individual rats

Cc1cccc(C)c1NC(=O)CN1CCCC1=O [nefiracetam, N-(2,6-dimethylphenyl)-2-(2-oxo-1-pyrrolidinyl)acetamide]
Day on which stage 5 was reached ([1]; 90 mg/kg, typical rat (control: ninth day)): tenth day | Day on which seizure stage began to progress ([1]; 90 mg/kg, typical rat (control: third day)): sixth day | Number of stimulations until the completion of stage 5 versus control rats ([1]; 45, 90 or 180 mg/kg p.o. daily): no difference was observed | Number of samples showing an increase in afterdischarge threshold/total samples [1, 4]: 3/6 | Number of samples showing stage 5 intermittently/total samples [1, 4]: 4/6 | Number of samples showing an increase in afterdischarge threshold/total samples [1, 5]: 0/4 | Number of samples showing stage 5 intermittently/total samples [1, 5]: 0/4 | Number of samples showing an increase in afterdischarge threshold/total samples [1, 6]: 2/6 | Number of samples showing stage 5 intermittently/total samples [1, 6]: 5/6 | Stimulation intensity at which afterdischarge was shown ([1]; one nefiracetam-administered rat, eleventh day): 150 μA | Seizure stage ([1]; one nefiracetam-administered rat, eleventh day, 150 μA): 4 | Disappearance of seizures intravenous injection ([2]; 10 mg/kg i.v. during status epilepticus, individual rat): − | Spikes from the amygdala after 24 h [2, 7]: + | Spikes from the amygdala just after intravenous injection [2, 7]: + | Sedative action ([2]; 10 mg/kg i.v., individual rat): − | Disappearance of seizures intravenous injection ([2]; 50 mg/kg i.v. during status epilepticus, individual rat): − | Spikes from the amygdala after 24 h [2, 8]: + | Spikes from the amygdala just after intravenous injection [2, 8]: + | Sedative action ([2]; 50 mg/kg i.v., individual rat): − | Duration of sedative action after injection ([2]; 100 mg/kg i.v.): 30 to 60 min | Disappearance of seizures intravenous injection ([2]; 100 mg/kg i.v. during status epilepticus, individual rats): − | Spikes from the amygdala after 24 h [2, 9]: + | Spikes from the amygdala just after intravenous injection [2, 9]: + | Sedative action ([2]; 100 mg/kg i.v., individual rats): + | Duration of sedation from just after the injection ([2]; 200 mg/kg and 100 mg/kg i.v., approximately): 60 to 90 min | Rats in which seizures were not suppressed (behavior and electroencephalogram) ([2]; 200 mg/kg i.v.): 3 out of the 8 | Disappearance of seizures intravenous injection ([2]; 200 mg/kg i.v. during status epilepticus, individual rats): + (5×) and − (3×) | Spikes from the amygdala after 24 h [2, 10]: − (3×) and + (4×) | Spikes from the amygdala after 48 h [2, 10]: − (3×) and + (3×) | Spikes from the amygdala after 72 h [2, 10]: − (3×) and + (3×) | Spikes from the amygdala just after intravenous injection [2, 10]: − (4×) and + (4×) | Rats in which spikes corresponding to the amygdala disappeared from electroencephalogram ([2]; 200 mg/kg i.v., among the 5 rats whose seizures disappeared): 4 out of the 5 | Disappearance period of seizures after intravenous injection [2, 11]: 5 min and 35 min | Sedative action [2, 11]: + | Death after intravenous injection (time) ([2]; 200 mg/kg i.v., rat N5): 25 min | Rats in which seizures disappeared after injection ([2]; 200 mg/kg i.v., seizures later reappeared): 5 out of 8 | Changes in paroxysmal behavior or electroencephalograms ([2]; 10, 50, or 100 mg/kg i.v. during status epilepticus): no apparent changes | Hypermetabolism in non-focal sensorimotor area, caudatum-putamen, thalamus and hippocampus in both sides ([3]; 100 mg/kg i.v. during seizures): hypermetabolism is suppressed remarkably | Change in local cerebral glucose metabolism rate ([3]; Amygdala, focal side): →↓ | Change in local cerebral glucose metabolism rate ([3]; Amygdala, non-focal side): →↓ | Change in local cerebral glucose metabolism rate ([3]; Brain stem reticular formation, focal side): →↓ | Change in local cerebral glucose metabolism rate ([3]; Brain stem reticular formation, non-focal side): →↓ | Change in local cerebral glucose metabolism rate ([3]; Candatum-putamen, focal side): ↓ | Change in local cerebral glucose metabolism rate ([3]; Candatum-putamen, non-focal side): ↓↓ | Change in local cerebral glucose metabolism rate ([3]; Cerebellar cortex, focal side): → | Change in local cerebral glucose metabolism rate ([3]; Cerebellar cortex, non-focal side): → | Change in local cerebral glucose metabolism rate ([3]; Corpus callosum, focal side): → | Change in local cerebral glucose metabolism rate ([3]; Corpus callosum, non-focal side): → | Change in local cerebral glucose metabolism rate ([3]; Frontal lobe cortex, focal side): →↓ | Change in local cerebral glucose metabolism rate ([3]; Frontal lobe cortex, non-focal side): ↓ | Change in local cerebral glucose metabolism rate ([3]; Hypothalamaus, focal side): ↓ | Change in local cerebral glucose metabolism rate ([3]; Hypothalamaus, non-focal side): ↓ | Change in local cerebral glucose metabolism rate ([3]; Occipital lobe cortex, focal side): →↓ | Change in local cerebral glucose metabolism rate ([3]; Occipital lobe cortex, non-focal side): ↓ | Change in local cerebral glucose metabolism rate ([3]; Parietal lobe cortex, focal side): ↓ | Change in local cerebral glucose metabolism rate ([3]; Parietal lobe cortex, non-focal side): ↓↓ | Change in local cerebral glucose metabolism rate ([3]; Sensorimotor area cortex, focal side): →↓ | Change in local cerebral glucose metabolism rate ([3]; Sensorimotor area cortex, non-focal side): ↓ | Change in local cerebral glucose metabolism rate ([3]; Septal area, focal side): →↓ | Change in local cerebral glucose metabolism rate ([3]; Septal area, non-focal side): →↓ | Change in local cerebral glucose metabolism rate ([3]; Substantia nigra, focal side): →↓ | Change in local cerebral glucose metabolism rate ([3]; Substantia nigra, non-focal side): →↓ | Change in local cerebral glucose metabolism rate ([3]; Teniporal lobe cortex, focal side): →↓ | Change in local cerebral glucose metabolism rate ([3]; Teniporal lobe cortex, non-focal side): ↓ | Change in local cerebral glucose metabolism rate ([3]; Thalamus, focal side): →↓ | Change in local cerebral glucose metabolism rate ([3]; Thalamus, non-focal side): ↓ | Change in local cerebral glucose metabolism rate ([3]; hippocampus, focal side): ↓↓ | Change in local cerebral glucose metabolism rate ([3]; hippocampus, non-focal side): ↓↓
